Data taken from US20240041042A1, “1-(PYRIDYL)-5-AZINYLPYRAZOLE DERIVATIVES, AND THEIR USE FOR CONTROL OF UNDESIRED PLANT GROWTH” (Bayer Aktiengesellschaft, priority 2020, published 2024).

Tests used:
Assay type in all cases: in vivo
Avena fatua (AVEFA) = test: Pre-emergence herbicidal action against AVEFA; details: visual scoring after about 3 weeks vs untreated controls
In short: (§1)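 Greenhouse pot trial: seeds sown, soil-covered, sprayed before emergence with compound in water (0.5% additive; 600 l/ha; ≤320 g/ha). Scoring visual, ~3 weeks, 0–100% scale vs untreated.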

Lolium rigidum (LOLRI) = test: Pre-emergence herbicidal action against LOLRI
In short: as §1

[1] = system: Matricaria inodora (MATIN); test: Pre-emergence herbicidal action against MATIN
In short: as §1

[2] = system: Pharbitis purpurea (PHBPU); test: Pre-emergence herbicidal action against PHBPU
In short: as §1

[3] = system: Polygonum convolvulus (POLCO); test: Pre-emergence herbicidal action against POLCO
In short: as §1

[4] = system: Verconica persica (VERPE); test: Pre-emergence herbicidal action against VERPE
In short: as §1

[5] = system: Polygonum convolvulus (POLCO); test: Post-emergence herbicidal action against POLCO
In short: (§2)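 Rates were 320 g/ha or below, applied as aqueous WP/EC spray with 0.5% additive (600 l/ha) onto one-leaf-stage plants. About 3 weeks later in the greenhouse, damage was scored visually against untreated plants on a 0–100% scale, where 100% means plants died.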

Setaria viridis (SETVI) = test: Post-emergence herbicidal action against SETVI
In short: as §2

[6] = system: Verconica persica (VERPE); test: Post-emergence herbicidal action against VERPE
In short: as §2

Viola tricolor (VIOTR) = test: Post-emergence herbicidal action against VIOTR
In short: as §2

Compound: COC(=O)[C@H](C)COC(=O)COc1nn(-c2ccccn2)c(-c2cncc(F)c2)c1Cl [Example I-192]
- Pre-emergence action against AVEFA in % (Avena fatua (AVEFA); 320 g/ha): 90%
- Pre-emergence action against LOLRI in % (Lolium rigidum (LOLRI); dosage 80 g/ha): 80%
- Pre-emergence action against LOLRI in % (Lolium rigidum (LOLRI); dosage 320 g/ha): 100%
- Pre-emergence action against MATIN in % ([1]; dosage 80 g/ha): 90%
- Pre-emergence action against MATIN in % ([1]; dosage 320 g/ha): 90%
- Pre-emergence action against PHBPU in % ([2]; dosage 80 g/ha): 90%
- Pre-emergence action against PHBPU in % ([2]; dosage 320 g/ha): 90%
- Pre-emergence action against POLCO in % ([3]; dosage 80 g/ha): 90%
- Pre-emergence action against POLCO in % ([3]; dosage 320 g/ha): 100%
- Pre-emergence action against VERPE in % ([4]; dosage 320 g/ha): 90%
- Post-emergence action against POLCO in % ([5]; dosage 320 g/ha): 80%
- Post-emergence action against SETVI in % (Setaria viridis (SETVI); dosage 80 g/ha): 80%
- Post-emergence action against SETVI in % (Setaria viridis (SETVI); dosage 320 g/ha): 80%
- Post-emergence action against VERPE in % ([6]; 320 g/ha, VERPE): 80%
- Post-emergence action against VERPE in % ([6]; dosage 80 g/ha): 80%
- Post-emergence action against VIOTR in % (Viola tricolor (VIOTR); 320 g/ha): 80%

Compound: COC(=O)[C@@H](C)Oc1nn(-c2ncccc2F)c(-c2ccc(F)nc2)c1C1CC1 [Example I-307]
- Pre-emergence action against AVEFA in % (Avena fatua (AVEFA); 80 g/ha): 90%
- Pre-emergence action against AVEFA in % (Avena fatua (AVEFA); 320 g/ha): 100%
- Pre-emergence action against LOLRI in % (Lolium rigidum (LOLRI); dosage 80 g/ha): 100%
- Pre-emergence action against LOLRI in % (Lolium rigidum (LOLRI); dosage 320 g/ha): 100%
- Pre-emergence action against MATIN in % ([1]; dosage 80 g/ha): 90%
- Pre-emergence action against MATIN in % ([1]; dosage 320 g/ha): 100%
- Pre-emergence action against PHBPU in % ([2]; dosage 320 g/ha): 90%
- Pre-emergence action against POLCO in % ([3]; dosage 80 g/ha): 90%
- Pre-emergence action against POLCO in % ([3]; dosage 320 g/ha): 100%
- Pre-emergence action against VERPE in % ([4]; dosage 80 g/ha): 90%
- Pre-emergence action against VERPE in % ([4]; dosage 320 g/ha): 100%
- Post-emergence action against POLCO in % ([5]; dosage 80 g/ha): 80%
- Post-emergence action against POLCO in % ([5]; dosage 320 g/ha): 80%
- Post-emergence action against SETVI in % (Setaria viridis (SETVI); dosage 80 g/ha): 90%
- Post-emergence action against SETVI in % (Setaria viridis (SETVI); dosage 320 g/ha): 90%
- Post-emergence action against VERPE in % ([6]; 320 g/ha, VERPE): 90%
- Post-emergence action against VERPE in % ([6]; dosage 80 g/ha): 90%
- Post-emergence action against VIOTR in % (Viola tricolor (VIOTR); 80 g/ha): 80%
- Post-emergence action against VIOTR in % (Viola tricolor (VIOTR); 320 g/ha): 90%

Compound: COCCOC(=O)COc1nn(-c2ncccc2C)c(-c2cncc(F)c2)c1Br [Example I-212]
- Pre-emergence action against AVEFA in % (Avena fatua (AVEFA); 80 g/ha): 80%
- Pre-emergence action against AVEFA in % (Avena fatua (AVEFA); 320 g/ha): 90%
- Pre-emergence action against LOLRI in % (Lolium rigidum (LOLRI); dosage 80 g/ha): 80%
- Pre-emergence action against LOLRI in % (Lolium rigidum (LOLRI); dosage 320 g/ha): 90%
- Pre-emergence action against MATIN in % ([1]; dosage 80 g/ha): 80%
- Pre-emergence action against MATIN in % ([1]; dosage 320 g/ha): 90%
- Pre-emergence action against PHBPU in % ([2]; dosage 80 g/ha): 90%
- Pre-emergence action against PHBPU in % ([2]; dosage 320 g/ha): 90%
- Pre-emergence action against POLCO in % ([3]; dosage 80 g/ha): 90%
- Pre-emergence action against POLCO in % ([3]; dosage 320 g/ha): 90%
- Pre-emergence action against VERPE in % ([4]; dosage 80 g/ha): 80%
- Pre-emergence action against VERPE in % ([4]; dosage 320 g/ha): 100%
- Post-emergence action against POLCO in % ([5]; dosage 80 g/ha): 80%
- Post-emergence action against POLCO in % ([5]; dosage 320 g/ha): 90%
- Post-emergence action against SETVI in % (Setaria viridis (SETVI); dosage 80 g/ha): 80%
- Post-emergence action against SETVI in % (Setaria viridis (SETVI); dosage 320 g/ha): 80%
- Post-emergence action against VERPE in % ([6]; 320 g/ha, VERPE): 80%
- Post-emergence action against VERPE in % ([6]; dosage 80 g/ha): 80%
- Post-emergence action against VIOTR in % (Viola tricolor (VIOTR); 80 g/ha): 80%
- Post-emergence action against VIOTR in % (Viola tricolor (VIOTR); 320 g/ha): 80%

Compound: COC(=O)COc1nn(-c2ncccc2F)c(-c2cncc(F)c2)c1C1CC1 [Example I-167]
- Pre-emergence action against AVEFA in % (Avena fatua (AVEFA); 80 g/ha): 90%
- Pre-emergence action against AVEFA in % (Avena fatua (AVEFA); 320 g/ha): 90%
- Pre-emergence action against LOLRI in % (Lolium rigidum (LOLRI); dosage 80 g/ha): 100%
- Pre-emergence action against LOLRI in % (Lolium rigidum (LOLRI); dosage 320 g/ha): 100%
- Pre-emergence action against MATIN in % ([1]; dosage 80 g/ha): 90%
- Pre-emergence action against MATIN in % ([1]; dosage 320 g/ha): 90%
- Pre-emergence action against PHBPU in % ([2]; dosage 80 g/ha): 90%
- Pre-emergence action against PHBPU in % ([2]; dosage 320 g/ha): 90%
- Pre-emergence action against POLCO in % ([3]; dosage 80 g/ha): 90%
- Pre-emergence action against POLCO in % ([3]; dosage 320 g/ha): 90%
- Pre-emergence action against VERPE in % ([4]; dosage 80 g/ha): 100%
- Pre-emergence action against VERPE in % ([4]; dosage 320 g/ha): 100%
- Post-emergence action against POLCO in % ([5]; dosage 80 g/ha): 80%
- Post-emergence action against POLCO in % ([5]; dosage 320 g/ha): 80%
- Post-emergence action against SETVI in % (Setaria viridis (SETVI); dosage 320 g/ha): 80%
- Post-emergence action against VERPE in % ([6]; 320 g/ha, VERPE): 80%
- Post-emergence action against VERPE in % ([6]; dosage 80 g/ha): 80%
- Post-emergence action against VIOTR in % (Viola tricolor (VIOTR); 80 g/ha): 80%
- Post-emergence action against VIOTR in % (Viola tricolor (VIOTR); 320 g/ha): 80%

Compound: CCOC(=O)[C@@H](C)Oc1nn(-c2ccccn2)c(-c2cncc(F)c2)c1Cl [Example I-184]
- Pre-emergence action against AVEFA in % (Avena fatua (AVEFA); 80 g/ha): 80%
- Pre-emergence action against AVEFA in % (Avena fatua (AVEFA); 320 g/ha): 90%
- Pre-emergence action against LOLRI in % (Lolium rigidum (LOLRI); dosage 80 g/ha): 100%
- Pre-emergence action against LOLRI in % (Lolium rigidum (LOLRI); dosage 320 g/ha): 100%
- Pre-emergence action against MATIN in % ([1]; dosage 80 g/ha): 90%
- Pre-emergence action against MATIN in % ([1]; dosage 320 g/ha): 90%
- Pre-emergence action against PHBPU in % ([2]; dosage 80 g/ha): 80%
- Pre-emergence action against PHBPU in % ([2]; dosage 320 g/ha): 90%
- Pre-emergence action against POLCO in % ([3]; dosage 80 g/ha): 90%
- Pre-emergence action against POLCO in % ([3]; dosage 320 g/ha): 90%
- Pre-emergence action against VERPE in % ([4]; dosage 80 g/ha): 90%
- Pre-emergence action against VERPE in % ([4]; dosage 320 g/ha): 100%
- Post-emergence action against POLCO in % ([5]; dosage 80 g/ha): 80%
- Post-emergence action against POLCO in % ([5]; dosage 320 g/ha): 80%
- Post-emergence action against SETVI in % (Setaria viridis (SETVI); dosage 80 g/ha): 80%
- Post-emergence action against SETVI in % (Setaria viridis (SETVI); dosage 320 g/ha): 90%
- Post-emergence action against VERPE in % ([6]; 320 g/ha, VERPE): 90%
- Post-emergence action against VERPE in % ([6]; dosage 80 g/ha): 90%
- Post-emergence action against VIOTR in % (Viola tricolor (VIOTR); 80 g/ha): 80%
- Post-emergence action against VIOTR in % (Viola tricolor (VIOTR); 320 g/ha): 90%
